This is an account of results in article PMC10974284, “Discovery of Novel 4-Hydroxyquinazoline Derivatives: In Silico, In Vivo and In Vitro Studies Using Primary PARPi-Resistant Cell Lines” (Molecules, 2024).

Read-outs that look alike come from different tables or passages of the source.

Series [1] deals with HCC1937 cell lines. The series is described as follows: MTT cytotoxicity assay, HCC1937. The format is cell-based, human. Particulars: for IC50 / inhibition at 50 µM: Homo sapiens; for IC50: read-out: IC50 HCC1937; for inhibition at 50 µM: read-out: Inhibition rate (%) HCC1937. The procedure:
(§1) After treatment with target compounds at the different concentrations, MTT was added and the cells were incubated for another 4 h. The IC50 values of the selected compounds were evaluated by the same method. The cells were treated with compounds at different concentrations. The OD values were detected using a microplate reader at 570 nm.

For series [2], the system named is HCT-15 cell lines. Description: MTT cytotoxicity assay, HCT-15. Type of series: cell-based, human. Particulars: for IC50 / inhibition at 50 µM: Homo sapiens; for IC50: read-out: IC50 HCT-15; for inhibition at 50 µM: read-out: Inhibition rate (%) HCT-15. The procedure:
as §1

Setting [3] is: HCC1937, 72 h (3-Days) drug exposure, MTT.
The mark [4] stands for this setting: HCT-15, 72 h (3-Days) drug exposure, MTT.

`O=C(Nc1ccc(F)c(Cl)c1)N1CCN(Cc2nc3ccccc3c(=O)[nH]2)CC1` [A36, N-(3-chloro-4-fluorophenyl)-4-((4-oxo-3,4-dihydroquinazolin-2-yl)methyl)piperazine-1-carboxamide] returned a melting point of 200.1 to 202.7 °C. The IC50 in series [1] (setting [3]) was > 50 µM. Further, in series [2] (setting [4]), the IC50 is 25.2 ± 1.66 µM.
For `O=C(Nc1ccccc1C(F)(F)F)N1CCN(Cc2nc3ccccc3c(=O)[nH]2)CC1` [A13, 4-((4-oxo-3,4-dihydroquinazolin-2-yl)methyl)-N-(2-(trifluoromethyl)phenyl) piperazine-1-carboxamide] the same measures were 200.1 to 201.2 °C, > 50 µM and 20.2 ± 0.78 µM.
In turn, `Cc1ccc(Cl)cc1NC(=O)N1C[C@H]2CC[C@@H](C1)N2Cc1nc2ccccc2c(=O)[nH]1` [B5, (1R,5S)-N-(5-chloro-2-methylphenyl)-8-((4-oxo-3,4-dihydroquinazolin-2-yl)methyl)-3,8-diazabicyclo[3.2.1]octane-3-carboxamide] registered a melting point of 189.5 to 191.7 °C. Besides, in series [1] (HCC1937, 72 h), the IC50 came to 9.61 ± 1.35 µM. Besides, in series [2] (HCT-15, 72 h), the IC50 was determined as 11 ± 2.4 µM.
Consider `Cc1cccc(NC(=O)N2CCN(Cc3nc4ccccc4c(=O)[nH]3)CC2)c1` [A11, 4-((4-oxo-3,4-dihydroquinazolin-2-yl)methyl)-N-(m-tolyl)piperazine-1-carboxamide], for which the melting point is 197.8 to 200.2 °C. Also, the concentration for half-maximal inhibition (IC50) in series [1] (setting [3]) was > 50 µM. For the same compound, the IC50 in series [2] (setting [4]) is 25.6 ± 1.17 µM.
Regarding `Cc1cc(C)cc(NC(=O)N2CCN(Cc3nc4ccccc4c(=O)[nH]3)CC2)c1` [A38, N-(3,5-dimethylphenyl)-4-((4-oxo-3,4-dihydroquinazolin-2-yl)methyl)piperazine-1-carboxamide], the melting point fell in the range of 201.5 to 203.3 °C. Besides, in series [1] (setting [3]), the IC50 was found to be 17.9 ± 1.32 µM. The IC50 in series [2] (setting [4]) amounted to 18 ± 0.88 µM.
Consider `C[C@H](CCC(=O)O)[C@H]1CC[C@H]2[C@@H]3C(=O)C[C@@H]4CC(=O)CC[C@]4(C)[C@H]3CC(=O)[C@]12C` [compound 35], for which the “Inhibition rate (%) HCC1937” value in series [1] (50 μM, 72 h, MTT) turned out to be 21.4%. For the same compound, the “Inhibition rate (%) HCT-15” value in series [2] (50 μM, 72 h, MTT) is on record as 12.3%.
Compound `Cc1ccc(Cl)cc1NC(=O)N1C2CC1CN(Cc1nc3cc(F)c(F)cc3c(=O)[nH]1)C2` [C5, N-(5-chloro-2-methylphenyl)-3-((6,7-difluoro-4-oxo-3,4-dihydroquinazolin-2-yl)methyl)-3,6-diazabicyclo[3.1.1]heptane-6-carboxamide] registered a melting point of 194.4 to 195.8 °C. Further, the IC50 in series [1] (HCC1937, 72 h) was 55 ± 4.28 µM. Further, the IC50 in series [2] (HCT-15, 72 h) is 29.6 ± 2.16 µM.
Take `O=C(Nc1cccc(F)c1F)N1CCN(Cc2nc3ccccc3c(=O)[nH]2)CC1` [A19, N-(2,3-difluorophenyl)-4-((4-oxo-3,4-dihydroquinazolin-2-yl)methyl)piperazine-1-carboxamide]: the melting point was 188.2 to 189.9 °C. The 50% inhibitory concentration (IC50) in series [1] (setting [3]) is > 50 µM. For the same compound, the IC50 in series [2] (setting [4]) turned out to be 19.1 ± 0.59 µM.
As for `O=c1[nH]c(CCl)nc2ccccc12` [compound 2], the inhibition at 50 µM in series [1] (HCC1937, 50 μM, 72 h, MTT) was 10.3%; in series [2] (HCT-15, 50 μM, 72 h, MTT), 31.9%.
In turn, `Cc1ccc(Cl)c(NC(=O)N2CCN(Cc3nc4ccccc4c(=O)[nH]3)CC2)c1` [A27, N-(2-chloro-5-methylphenyl)-4-((4-oxo-3,4-dihydroquinazolin-2-yl)methyl)piperazine-1-carboxamide] came in with a melting point of 196.7 to 198.7 °C. Moreover, the IC50 in series [1] (setting [3]) was found to be 17.5 ± 0.66 µM. In addition, the IC50 in series [2] (setting [4]) worked out at 25.4 ± 1.48 µM.
In turn, `O=C(Nc1ccc(Cl)cc1)N1CCN(Cc2nc3ccccc3c(=O)[nH]2)CC1` [A6, N-(4-chlorophenyl)-4-((4-oxo-3,4-dihydroquinazolin-2-yl)methyl)piperazine-1-carboxamide] yielded a melting point of 189.8 to 191.4 °C. Further, the concentration for half-maximal inhibition (IC50) in series [1] (setting [3]) was > 50 µM. Moreover, in series [2] (setting [4]), the IC50 is 21.4 ± 0.86 µM.
The corresponding values for `Cc1ccc(F)c(NC(=O)N2CCN(Cc3nc4ccccc4c(=O)[nH]3)CC2)c1` [A23, N-(2-fluoro-5-methylphenyl)-4-((4-oxo-3,4-dihydroquinazolin-2-yl)methyl)piperazine-1-carboxamide] are 199.5 to 201.1 °C, 44.2 ± 3.47 µM and 26 ± 1.67 µM.
The corresponding values for `O=C(Nc1cc(C(F)(F)F)ccc1Cl)N1CCN(Cc2nc3ccccc3c(=O)[nH]2)CC1` [A26, N-(2-chloro-5-(trifluoromethyl)phenyl)-4-((4-oxo-3,4-dihydroquinazolin-2-yl)methyl)piperazine-1-carboxamide] are 191.2 to 193.9 °C, > 50 µM and 37.3 ± 2.76 µM.
On to `O=C(Nc1ccccc1Br)N1CCN(Cc2nc3ccccc3c(=O)[nH]2)CC1` [A7, N-(2-bromophenyl)-4-((4-oxo-3,4-dihydroquinazolin-2-yl)methyl)piperazine-1-carboxamide], for which the melting point fell in the range of 195.1 to 196.7 °C. Further, the 50% inhibitory concentration (IC50) in series [1] (setting [3]) was 40.3 ± 3.32 µM. Further, the half-inhibitory concentration (IC50) in series [2] (setting [4]) is 29.6 ± 1.37 µM.
With `Cc1cc(F)ccc1NC(=O)N1CCN(Cc2nc3ccccc3c(=O)[nH]2)CC1` [A29, N-(4-fluoro-2-methylphenyl)-4-((4-oxo-3,4-dihydroquinazolin-2-yl)methyl)piperazine-1-carboxamide], the melting point lay within 197.6 to 200.1 °C. Besides, the IC50 in series [1] (setting [3]) was > 50 µM. Besides, the IC50 in series [2] (setting [4]) was 29.8 ± 1.57 µM.
`Cc1ccc(Cl)cc1NC(=O)N1C2CC1CN(Cc1nc3ccc(F)cc3c(=O)[nH]1)C2` [C4, N-(5-chloro-2-methylphenyl)-3-((6-fluoro-4-oxo-3,4-dihydroquinazolin-2-yl)methyl)-3,6-diazabicyclo[3.1.1]heptane-6-carboxamide]: the melting point is 192.1 to 193.5 °C. Besides, the half-inhibitory concentration (IC50) in series [1] (HCC1937, 72 h) turned out to be 8.49 ± 0.71 µM. The IC50 in series [2] (HCT-15, 72 h) amounted to 9.84 ± 0.63 µM.
Consider `Cc1ccc(Cl)cc1NC(=O)N1C[C@@H]2C[C@H]1CN2Cc1nc2ccccc2c(=O)[nH]1` [B3, (1S,4S)-N-(5-chloro-2-methylphenyl)-5-((4-oxo-3,4-dihydroquinazolin-2-yl)methyl)-2,5-diazabicyclo[2.2.1]heptane-2-carboxamide], for which the melting point lay in the range of 191.1 to 192.4 °C. The IC50 in series [1] (setting [3]) amounted to 16.5 ± 0.94 µM. In series [2] (setting [4]), the IC50 stood at 12.5 ± 1.49 µM.
For `Cc1c(F)cccc1NC(=O)N1CCN(Cc2nc3ccccc3c(=O)[nH]2)CC1` [A28, N-(3-fluoro-2-methylphenyl)-4-((4-oxo-3,4-dihydroquinazolin-2-yl)methyl)piperazine-1-carboxamide] the same measures were 198.9 to 200.6 °C, > 50 µM and 30.3 ± 3.3 µM.
`Cc1cccc(NC(=O)N2CCN(Cc3nc4ccccc4c(=O)[nH]3)CC2)c1F` [A21, N-(2-fluoro-3-methylphenyl)-4-((4-oxo-3,4-dihydroquinazolin-2-yl)methyl)piperazine-1-carboxamide] gave a melting point of 200.5 to 202.1 °C. In addition, in series [1] (setting [3]), the IC50 is > 50 µM. Moreover, the IC50 in series [2] (setting [4]) is 28.3 ± 1.55 µM.
`Cc1ccc(Cl)cc1NC(=O)N1C2CCC1CN(Cc1nc3ccccc3c(=O)[nH]1)C2` [B6, N-(5-chloro-2-methylphenyl)-3-((4-oxo-3,4-dihydroquinazolin-2-yl)methyl)-3,8-diazabicyclo[3.2.1]octane-8-carboxamide] registered a melting point of 192.3 to 193.6 °C. Moreover, the IC50 in series [1] (HCC1937, 72 h) worked out at 7.52 ± 1.37 µM. Also, in series [2] (HCT-15, 72 h), the half-inhibitory concentration (IC50) was found to be 7.27 ± 1.28 µM.
The compound `O=C(Nc1ccc(C(F)(F)F)cc1F)N1CCN(Cc2nc3ccccc3c(=O)[nH]2)CC1` [A24, N-(2-fluoro-4-(trifluoromethyl)phenyl)-4-((4-oxo-3,4-dihydroquinazolin-2-yl)methyl)piperazine-1-carboxamide] displayed a melting point of 202.3 to 203.9 °C. Besides, the IC50 in series [1] (setting [3]) stood at 44.1 ± 2.19 µM. The half-maximal inhibitory concentration (IC50) in series [2] (setting [4]) stood at 22.8 ± 1.82 µM.
For `O=C(Nc1cc(C(F)(F)F)cc(C(F)(F)F)c1)N1CCN(Cc2nc3ccccc3c(=O)[nH]2)CC1` [A39, N-(3,5-bis(trifluoromethyl)phenyl)-4-((4-oxo-3,4-dihydroquinazolin-2-yl)methyl)piperazine-1-carboxamide] the same measures were 204.2 to 206.1 °C, 42.2 ± 2.77 µM and 21 ± 2.33 µM.
Turning to `O=C(Nc1cc(Cl)cc(Cl)c1)N1CCN(Cc2nc3ccccc3c(=O)[nH]2)CC1` [A35, N-(3,5-dichlorophenyl)-4-((4-oxo-3,4-dihydroquinazolin-2-yl)methyl)piperazine-1-carboxamide], the melting point fell in the range of 207.5 to 209.5 °C. Further, the IC50 in series [1] (setting [3]) was > 50 µM. Also, in series [2] (setting [4]), the IC50 was determined as 21.2 ± 0.89 µM.
In the case of `O=c1[nH]c(=O)n([C@H]2C[C@H](O)[C@@H](CO)O2)cc1/C=C/Br` [compound 33], the “Inhibition rate (%) HCC1937” value in series [1] (50 μM, 72 h, MTT) is 17.3%. The “Inhibition rate (%) HCT-15” value in series [2] (50 μM, 72 h, MTT) is on record as 28.5%.
On to `COC(=O)c1ccccc1N` [compound 1], for which the inhibition at 50 µM in series [1] (HCC1937, 72 h) is 12.7%; in series [2] (HCT-15, 72 h), 13.7%.
For `CC(C)(C)OC(=O)N1CCN(Cc2nc3ccccc3c(=O)[nH]2)CC1` [compound 3], the inhibition at 50 µM in series [1] (HCC1937, 50 μM, 72 h, MTT) is 19.5%; in series [2] (HCT-15, 50 μM, 72 h, MTT) it was 52.3%.
As to `Oc1ccc(N2CCNCC2)cc1` [compound 23], the “Inhibition rate (%) HCC1937” value in series [1] (50 μM, 72 h, MTT) turned out to be 9.2%. Further, the “Inhibition rate (%) HCT-15” value in series [2] (50 μM, 72 h, MTT) was found to be 41.9%.
Turning to `O=c1[nH]c(CN2CCNCC2)nc2ccccc12` [compound 4], the inhibition at 50 µM in series [1] (HCC1937, 50 μM, 72 h, MTT) is 16.5%; in series [2] (HCT-15, 50 μM, 72 h, MTT), 48.9%.
In the case of `Cc1ccc(-c2cc(C(F)(F)F)nn2-c2ccc(S(N)(=O)=O)cc2)cc1` [compound 54], the “Inhibition rate (%) HCC1937” value in series [1] (50 μM, 72 h, MTT) stood at 33.1%. Besides, the “Inhibition rate (%) HCT-15” value in series [2] (50 μM, 72 h, MTT) came out at 33.5%.
